# Assay results: ChEMBL document CHEMBL1129902, “Bioactivatable derivatives of 8-substituted cAMP-analogues” (Bioorg Med Chem Lett, 1997)
# Target: cAMP-dependent protein kinase (PKA) (Homo sapiens, UniProt P22694+P17612+P22612)
# Assay: Activation of cAMP dependent protein kinase (PKA)
# Format: functional
row,SMILES,EC50 [µM]
1,CC(=O)OCOP1(=O)OC[C@@H]2O[C@@H](n3c(Sc4ccc(Cl)cc4)nc4c(N)ncnc43)[C@H](O)[C@@H]2O1 (some centres not stated),0.15
2,Nc1ncnc2c1nc(Sc1ccc(Cl)cc1)n2[C@@H]1O[C@@H]2COP(=O)(O)O[C@H]2[C@H]1O,20
3,CC(=O)OCOP1(=O)OC[C@@H]2O[C@@H](n3c(N4CCCCC4)nc4c(N)ncnc43)[C@H](O)[C@@H]2O1 (some centres not stated),10

# System: not listed separately
# Assay: Lipophilicity relative to cAMP (log Kw=1)
# Format: physicochemical
row,SMILES,Log Kw
1,CC(=O)OCOP1(=O)OC[C@@H]2O[C@@H](n3c(Br)nc4c(N)ncnc43)[C@H](O)[C@@H]2O1 (some centres not stated),> 2
2,CC(=O)OCOP1(=O)OC[C@@H]2O[C@@H](n3c(Sc4ccc(Cl)cc4)nc4c(N)ncnc43)[C@H](O)[C@@H]2O1 (some centres not stated),> 4
3,CC(=O)OCOP1(=O)OC[C@@H]2O[C@@H](n3c(N4CCCCC4)nc4c(N)ncnc43)[C@H](O)[C@@H]2O1 (some centres not stated),> 3.5
4,CC(=O)OCOP1(=O)OC[C@@H]2O[C@@H](n3c(NCCO)nc4c(N)ncnc43)[C@H](O)[C@@H]2O1 (some centres not stated),> 2
